US8853260B2, “Formulations of pharmacological agents, methods for the preparation thereof and methods for the use thereof” (priority 1997, dated 2014)

Assays:
[1] = system: patients with breast cancer, non-Hodgkin's lymphoma or ovarian cancer; conditions: cited from earlier work
[2] = system: ovarian cancer and breast cancer; conditions: 250 mg/m^2/21 days; cited from earlier work
[3] = Blood kinetics following multiple intravenous dose levels of Capxol; assay type: in vivo, rat
Description: Blood was collected from the tail vein and the AUC0-24 was calculated. At 24 hours, blood samples were collected; extracted, and the extract injected on HPLC to determine the level of parent compound in the blood.

## CC(=O)O[C@H]1C(=O)[C@@]2(C)[C@H]([C@H](OC(=O)c3ccccc3)[C@]3(O)C[C@H](OC(=O)[C@H](O)[C@@H](NC(=O)c4ccccc4)c4ccccc4)C(C)=C1C3(C)C)[C@]1(OC(C)=O)CO[C@@H]1C[C@@H]2O [paclitaxel]
[1]; 24 hour infusion, combined with cyclophosphamide 5,625 mg/m^2 and cisplatin 165 mg/m^2, AHPCS
  MTD: 775 mg/m^2
[1]; patients with breast cancer, combination with cyclophosphamide and cisplatin
  partial response: 54%
[2]
  objective response rate: 35.9%
[3]; 9 mg/kg dose, given as Capxol
  level of parent compound in blood after 24 hours: 0.04 ppm
[3]; from the 9 mg/kg dose to the 148 mg/kg dose
  increase of parent compound level after 24 hours, factor: 8.5
